Read-outs that look alike come from different tables or passages of the source.
Key:
[1] = Acute Toxicity; settings: rat, in vivo, po, male Wistar rats
Experimental: The test compounds were orally administered to male Wistar rats, and the half lethal dose (LD50) was measured.

[2] = system: gastric juice secretion; experiment: Shay rat pylorus ligation method (gastric juice secretion-inhibiting activity); format: in vivo, male Wistar rats; settings: sc, 4 h, 100 mg/kg s.c., 30 min before pylorus ligation, measured 4 hours after ligation
Experimental: The pharmacological activities of the compouns (I) were tested by a Shay rat pylorus ligation method (cf. H. Shay et al: Gastroenterol., Vol. 5, page 43, 1945) which is the most popular method for testing of gastric juice secretion-inhibiting activity. The test was carried out by using male Wistar rats, weighing about 170 g and fasting for 24 hours.
Test compounds were administered 30 minutes before the pylorus ligation in a dose of 100 mg/kg in subcutaneous route, and the volume, total acidity and/or pepsin activity of the gastric juice were measured 4 hours after the ligation. As a control, a saline solution was administered instead of the test compound. The inhibitory ratio (%) of the test compounds were calculated when the inhibitory activities of the control were counted as zero (0).
(§1) In the table, the inhibitory ratio (%) was evaluated as follows: […]

[3] = system: Stress Ulcer; experiment: Stress Ulcer; format: in vivo, male Wistar rats; settings: oral, 1×10^-3 mole in 0.5% CMC, before restraint and water dipping at 23° C. for 7 hours
Experimental: After male Wistar rats weighing about 170 g was fasted for 24 hours, the rats were restrained in a stress cage and dipped in water bath at 23° C. till chest of the animals. After 7 hours, the rats were killed and the stomach was isolated. Into the isolated stomach 10% formalin (8 ml) was poured and settled. The stomach was cut open at the greater curvature, and the length of each ulcer on the membrane was measured. Sum of the length of all ulcers was shown as ulcer index (UI). The test compound was orally administered to the rats before restraint in a stress cage in the form of 0.5% CMC suspension in a concentration of 1×10^-3 mole. As a control, only the solvent (CMC solution) was administered likewise.
The inhibitory ratio (%) of stress ulcer of the test compounds was calculated by the following equation: [formula]
as §1

[4] = saline control = 0, read-out: Inhibitory ratio, Pepsin activity
[5] = saline control = 0, read-out: Inhibitory ratio, Total acidity
[6] = saline control = 0, read-out: Inhibitory ratio, Volume of gastric juice

SMILES	LD50 [1] [mg/kg]	inhibition in vivo at 100 mg/kg [2, 4] [%]	inhibition in vivo at 100 mg/kg [2, 5] [%]	inhibition in vivo at 100 mg/kg [2, 6] [%]	Inhibitory ratio of stress ulcer [3]
CCN(C(=O)CCCCSc1nnnn1C)C1CCCCC1 [Compound 3, N-Ethyl-N-cyclohexyl-5-(1-methyl-1,2,3,4-tetrazol-5-yl)thio-valeramide]	> 500	10 to 50	10 to 50	> 50	
CCN(CC)C(=O)CCCCc1nnnn1C1CCCCC1 [Compound 5, N,N-Diethyl-5-(1-cyclohexyl-1,2,3,4-tetrazol-5-yl)valeramide]	> 500	10 to 50	10 to 50	10 to 50	
Cn1nnnc1SCCCC(=O)NC1CCCCC1 [Compound 6, N-Cyclohexyl-4-(1-methyl-1,2,3,4-tetrazol-5-yl)thio-butyramide]	> 500	10 to 50	10 to 50	10 to 50	
CCN(C(=O)CCCSc1nnnn1C)C1CCCCC1O (stereo not shown) [Compound 8, N-Ethyl-N-(2-hydroxycyclohexyl)-4-(1-methyl-1,2,3,4-tetrazol-5-yl)thio-butyramide]	> 500	10 to 50	10 to 50	10 to 50	
CCN(CC)C(=O)CCSCc1nnnn1CC [Compound 14, N,N-Diethyl-3-(1-ethyl-1,2,3,4-tetrazol-5-yl)methylthio-propionamide]				10 to 50	++ (more than 60%)
CCCCn1nnnc1CSCCC(=O)NCC [Compound 15, N-Ethyl-3-(1-butyl-1,2,3,4-tetrazol-5-yl)-methylthio-propionamide]					++ (more than 60%)
CCN(CC)C(=O)CCCSCc1nnnn1CC [Compound 18, N,N-Diethyl-4-(1-ethyl-1,2,3,4-tetrazol-5-yl)methylthio-butyramide]					+ (30 to less than 60%)
CCN(C(=O)CCCSc1nnnn1C)C1CCCCCC1 [Compound 20, N-Ethyl-N-cycloheptyl-4-(1-methyl-1,2,3,4-tetrazol-5-yl)thio-butyramide]		< 10	10 to 50	> 50	
CC(C)N(C(=O)CCCSc1nnnn1C)C(C)C [Compound 21, N,N-Diisopropyl-4-(1-methyl-1,2,3,4-tetrazol-5-yl)thio-butyramide]		< 10	10 to 50	> 50	
Cn1nnnc1SCCCC(=O)N(Cc1ccccc1)Cc1ccccc1 [Compound 22, N,N-Dibenzyl-4-(1-methyl-1,2,3,4-tetrazol-5-yl)thio-butyramide]		< 10	10 to 50	10 to 50	
CCN(C(=O)CCCCc1nnnn1C1CCCCC1)C1CCCCC1 [Compound 23, N-Ethyl-N-cyclohexyl-5-(1-cyclohexyl-1,2,3,4-tetrazol-5-yl)valeramide]		< 10	10 to 50	10 to 50	+ (30 to less than 60%)
CC(C)N(C(=O)CCCSc1nnnn1C)C1CCCCC1 [Compound 24, N-Isopropyl-N-cyclohexyl-4-(1-methyl-1,2,3,4-tetrazol-5-yl)thio-butyramide]		< 10	10 to 50	> 50	
Cn1nnnc1SCCCC(=O)N1CCCCC1 [Compound 25, 1-Methyl-5-(3-piperidylcarbonylpropyl)thio-1,2,3,4-tetrazole]		10 to 50	10 to 50	10 to 50	
Cn1nnnc1SCCCC(=O)Nc1ccccn1 [Compound 27, N-(2-Pyridyl)-4-(1-methyl-1,2,3,4-tetrazol-5-yl)thio-butyramide]		10 to 50	10 to 50	10 to 50	
CCN(C(=O)CCCSc1nnnn1C)C1CCCC1 [Compound 29, N-Ethyl-N-cyclopentyl-4-(1-methyl-1,2,3,4-tetrazol-5-yl)thio-butyramide]		10 to 50	> 50	> 50	
CCN(CC1CCCCC1)C(=O)CCCSc1nnnn1C [Compound 30, N-Ethyl-N-cyclohexylmethyl-4-(1-methyl-1,2,3,4-tetrazol-5-yl)thio-butyramide]		10 to 50	10 to 50	> 50	
CCN(C(=O)CCCSc1nnnn1-c1ccccc1)C1CCCCC1 [Compound 31, N-Ethyl-N-cyclohexyl-4-(1-phenyl-1,2,3,4-tetrazol-5-yl)thio-butyramide]		10 to 50	10 to 50	> 50	

SMILES	LD50 [1] [mg/kg]	inhibition in vivo at 100 mg/kg [2, 4] [%]	inhibition in vivo at 100 mg/kg [2, 5] [%]	inhibition in vivo at 100 mg/kg [2, 6] [%]	Inhibitory ratio of stress ulcer [3]
CC(=O)N1CCN(C(=O)CCCSc2nnnn2C)CC1 [Compound 32, 1-Methyl-5-[3-(4-acetyl-1-piperazinylcarbonyl)propyl]thio-1,2,3,4-tetrazol]		10 to 50	10 to 50	10 to 50	
Cn1nnnc1SCCCC(=O)N1CCOCC1 [Compound 33, 1-Methyl-5-(3-morpholinocarbonylpropyl)thio-1,2,3,4-tetrazole]		10 to 50	10 to 50	10 to 50	
CCN(CC)C(=O)CCCCc1nnnn1C [Compound 34, N,N-Diethyl-5-(1-methyl-1,2,3,4-tetrazol-5-yl)valeramide]		10 to 50	10 to 50	10 to 50	+ (30 to less than 60%)
CCN(CC)C(=O)CCCCc1nnnn1-c1ccccc1 [Compound 35, N,N-Diethyl-5-(1-phenyl-1,2,3,4-tetrazol-5-yl)valeramide]		10 to 50	10 to 50	10 to 50	+ (30 to less than 60%)
CCN(C(=O)CCSCc1nnnn1CC)C1CCCCC1 [Compound 36, N-Ethyl-N-cyclohexyl-3-(1-ethyl-1,2,3,4-tetrazol-5-yl)methylthio-propionamide]				> 50	
Cn1nnnc1SCCCC(=O)O [Compound 38, 4-(1-methyl-1,2,3,4-tetrazol-5-yl)thiobutyric acid]				10 to 50	
Cn1nnnc1SCCCC(=O)N(CCO)c1ccccc1 [Compound 40, N-(2-Hydroxyethyl)-N-phenyl-4-(1-methyl-1,2,3,4-tetrazol-5-yl)thio-butyramide]				10 to 50	
Cn1nnnc1SCCCC(=O)Nc1ccc(S(N)(=O)=O)cc1 [Compound 41, N-(4-Sulfamoylphenyl)-4-(1-methyl-1,2,3,4-tetrazol-5-yl)thio-butyramide]				10 to 50	
Cc1c(Cl)cccc1NC(=O)CCCSc1nnnn1C [Compound 42, N-(2-Methyl-3-chlorophenyl)-4-(1-methyl-1,2,3,4-tetrazol-5-yl)thio-butyramide]				10 to 50	
Cn1nnnc1SCCCC(=O)Nc1ccc([N+](=O)[O-])cc1 [Compound 43, N-(4-Nitrophenyl)-4-(1-methyl-1,2,3,4-tetrazol-5-yl)thio-butyramide]				10 to 50	
CCCCCCNC(=O)CCCCc1nnnn1-c1ccccc1 [Compound 48, N-(n-Hexyl)-5-(1-phenyl-1,2,3,4-tetrazol-5-yl)valeramide]					+ (30 to less than 60%)
CC(C)N(C(=O)CCCCc1nnnn1-c1ccccc1)C1CCCCC1 [Compound 50, N-Isopropyl-N-cyclohexyl-5-(1-phenyl-1,2,3,4-tetrazol-5-yl)valeramide]					++ (more than 60%)
CCN(C(=O)CCCCc1nnnn1C)C1CCCCC1 [Compound 51, N-Ethyl-N-cyclohexyl-5-(1-methyl-1,2,3,4-tetrazol-5-yl)valeramide]				10 to 50	+ (30 to less than 60%)
CCN(CC)C(=O)CCCCc1nnn[nH]1 [Compound 52, N,N-Diethyl-5-(1,2,3,4-tetrazol-5-yl)-valeramide]				10 to 50	+ (30 to less than 60%)
CCc1ccc(-n2nnnc2CSCCC(=O)O)cc1 [Compound 53, 3-[1-(4-Ethylphenyl)-1,2,3,4-tetrazol-5-yl]-methylthio-propionic acid]				10 to 50	
COC(=O)CCCCc1nnnn1C1CCCCC1 [Compound 54, Methyl 5-(1-cyclohexyl-1,2,3,4-tetrazol-5-yl)valerate]				10 to 50	
